The supplement of paper PMC10307832

Legend:
Test in all cases: relative viability (nuclei count vs DMSO), 5 days (fraction); higher = more cells survive
[1] = compound: O=C(NC1CCNCC1)c1n[nH]cc1NC(=O)c1c(Cl)cccc1Cl [AT-7519] + CC(=O)c1c(C)c2cnc(Nc3ccc(N4CCNCC4)cn3)nc2n(C2CCCC2)c1=O [Palbociclib] (partner 0.5 µM)
Summary of the method: (§1)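 Relative viability divides the nuclei count in treated wells by that in vehicle wells. Lung cancer cell lines were seeded in 1536-well plates, dosed by pin tool the next day, and fixed and stained after 5 days in one step with final 0.05% Triton X-100, 1% formaldehyde and 1 ug/ml Hoechst. Dosing was a single drug or a fixed anchor-drug dose plus five library-drug doses (not always all listed) in √10 steps, and values are medians of duplicate plates imaged at 4×.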

[2] = compound: O=C(NC1CCNCC1)c1n[nH]cc1NC(=O)c1c(Cl)cccc1Cl [AT-7519] + NC(=O)Nc1cc(-c2cccc(F)c2)sc1C(=O)N[C@H]1CCCNC1 [AZD7762] (partner 0.2 µM)
Summary of the method: as §1

[3] = compound: C1=CC2=C(C=C(C(=C2N=C1)O)N=NC3=CC4=C(C=C3)C=C(C=C4)S(=O)(=O)O)S(=O)(=O)O + Cc1nc(NC(=O)N2CCC[C@H]2C(N)=O)sc1-c1ccnc(C(C)(C)C(F)(F)F)c1 [Alpelisib] (partner 2 µM)
Summary of the method: as §1

[4] = compound: O=C(NC1CCNCC1)c1n[nH]cc1NC(=O)c1c(Cl)cccc1Cl [AT-7519] + CC(C)C[C@H](NC(=O)[C@H](Cc1ccccc1)NC(=O)c1cnccn1)B(O)O [Bortezomib] (partner 0.002 µM)
Summary of the method: as §1

Cell Line	relative viability ([1]; first compound 0.01 µM)	relative viability ([1]; first compound 0.03162 µM)	relative viability ([1]; first compound 0.3162 µM)	relative viability ([1]; first compound 1 µM)	relative viability ([2]; first compound 0.01 µM)	relative viability ([2]; first compound 0.03162 µM)	relative viability ([2]; first compound 0.3162 µM)	relative viability ([2]; first compound 1 µM)	relative viability ([3]; first compound 0.08 µM)	relative viability ([3]; first compound 0.253 µM)	relative viability ([3]; first compound 0.8 µM)	relative viability ([3]; first compound 2.53 µM)	relative viability ([3]; first compound 8 µM)	relative viability ([4]; first compound 0.01 µM)	relative viability ([4]; first compound 0.03162 µM)	relative viability ([4]; first compound 0.3162 µM)	relative viability ([4]; first compound 1 µM)
NCI-H838	0.233	0.21	0.194	0.1	0.925	0.949	0.936	0.861	1.22	0.959	1.05	1.05	0.97	0.644	0.804	0.416	0.0826
HARA	0.194	–	0.273	0.233	0.221	0.301	0.263	0.415	0.907	0.873	0.791	0.894	0.845	1.14	1.16	1.1	1.06
NCI-H2087	0.226	0.224	0.186	0.116	1.48	1.13	1.49	0.58	0.938	0.888	1.08	0.977	0.989	0.82	1.05	0.811	0.51
NCI-H1437	0.282	0.319	0.295	0.251	0.989	1.09	1.07	0.982	1.06	0.995	0.935	0.94	0.929	0.448	0.514	0.494	0.307
NCI-H1792	–	–	0.692	0.837	0.759	0.554	0.571	0.467	0.861	0.639	0.66	0.715	0.743	0.752	0.89	0.882	0.888
NCI-H650	0.329	0.335	0.296	0.452	1.07	0.953	0.887	1.29	1.25	1.11	1.08	1.08	1.09	0.827	0.75	0.86	0.975
201T	0.339	0.34	0.32	0.363	0.595	0.591	0.645	0.683	1.02	0.991	0.995	1.06	1.03	1.08	1.03	1.1	1.09
HCC-44	0.975	0.961	0.965	0.901	0.983	0.998	1.08	1	0.867	0.786	0.779	0.893	0.893	0.752	1.02	1.01	0.979
H3255	0.376	0.309	0.328	0.308	0.987	0.903	0.937	0.876	0.82	0.698	0.717	0.775	0.712	0.904	0.825	0.984	0.766
NCI-H647	0.442	0.369	0.413	0.19	0.353	0.481	0.552	0.361	1.32	1.19	1.11	1.17	0.984	1.04	0.909	1.21	0.564
NCI-H23	0.594	0.508	0.482	0.292	0.258	0.262	0.242	0.309	0.753	0.676	0.614	0.705	0.807	0.983	1.04	0.852	0.504
NCI-H460	0.137	0.142	0.0995	0.019	0.665	0.653	1.02	0.693	0.545	0.456	0.511	0.5	0.291	1.05	0.91	0.533	0.046
EKVX	0.498	0.369	0.299	0.375	0.798	0.608	0.822	0.719	1.01	0.849	0.793	0.85	0.903	0.978	0.911	0.996	1.13
EPLC-272H	0.346	0.324	0.302	0.307	0.321	0.21	0.302	0.336	0.996	0.831	0.876	0.963	0.944	1.03	0.973	0.723	0.812
NCI-H2126	0.348	0.352	0.358	0.341	1	1.1	1.04	1.13	0.834	0.738	0.779	0.724	0.768	1.17	1.14	1.13	1.17
LXF-289	0.597	0.656	0.527	0.577	1.1	1.14	1.1	1.23	1.13	1.01	1.02	1.08	0.976	0.951	1.05	0.957	1.01

Cell Line	relative viability ([1]; first compound 0.01 µM)	relative viability ([1]; first compound 0.03162 µM)	relative viability ([1]; first compound 0.3162 µM)	relative viability ([1]; first compound 1 µM)	relative viability ([2]; first compound 0.01 µM)	relative viability ([2]; first compound 0.03162 µM)	relative viability ([2]; first compound 0.3162 µM)	relative viability ([2]; first compound 1 µM)	relative viability ([3]; first compound 0.08 µM)	relative viability ([3]; first compound 0.253 µM)	relative viability ([3]; first compound 0.8 µM)	relative viability ([3]; first compound 2.53 µM)	relative viability ([3]; first compound 8 µM)	relative viability ([4]; first compound 0.01 µM)	relative viability ([4]; first compound 0.03162 µM)	relative viability ([4]; first compound 0.3162 µM)	relative viability ([4]; first compound 1 µM)
NCI-H2405	0.534	0.523	0.532	0.381	0.732	0.724	0.683	0.527	0.805	0.758	0.838	0.886	0.722	0.978	1.04	1.02	0.863
NCI-H1755	0.477	0.478	0.435	0.458	0.427	0.461	0.629	0.428	1.02	0.874	0.933	0.949	0.956	0.927	1.09	0.976	0.969
HCC-78	0.423	0.431	0.611	0.479	0.609	0.636	0.616	0.815	0.406	0.325	0.319	0.345	0.266	0.479	0.38	0.6	0.516
LOU-NH91	0.491	0.552	0.524	0.461	0.755	0.79	0.643	0.713	0.783	0.744	0.703	0.761	0.675	0.541	0.541	0.468	0.478
NCI-H3122	0.212	0.506	0.221	0.145	1.01	1.11	1.02	0.752	0.891	0.795	0.719	0.732	0.76	1.03	1.01	1.06	0.688
HCC-827	0.433	0.494	0.478	0.398	0.215	0.17	0.21	0.237	1.05	0.989	0.807	0.978	1.05	1.1	1.1	1.05	1.06
NCI-H1975	0.51	0.599	0.362	0.176	0.691	0.744	0.76	0.638	0.741	0.653	0.603	0.645	0.649	0.352	0.301	0.433	0.202
NCI-H1651	0.517	0.504	0.547	0.534	0.531	0.49	0.536	0.561	1.09	1.02	1.16	1.08	0.895	0.912	0.917	0.971	0.974
NCI-H441	0.202	0.195	0.141	0.163	1.01	1.16	1.2	1.02	0.823	0.823	–	0.736	1.09	0.449	0.394	0.671	0.497
LCLC-103H	0.513	0.42	0.432	0.418	0.8	0.739	0.807	0.901	1	0.948	0.945	0.899	1.14	1.01	1.05	1.07	1.2
LCLC-97TM1	0.228	0.234	0.215	0.135	0.24	0.294	0.335	0.394	–	0.296	–	0.248	0.296	1.22	0.58	0.379	0.123
NCI-H727	0.621	0.698	0.658	0.427	0.571	0.494	0.604	0.414	0.547	0.578	0.537	0.609	0.567	0.973	0.837	0.573	0.526
NCI-H1355	0.348	0.389	0.359	0.589	0.71	0.703	0.902	0.907	0.94	0.838	0.767	0.905	0.956	1.26	1.16	1.31	1.29
HOP-62	0.422	0.465	0.489	0.489	0.589	0.557	0.621	0.743	1.27	1.14	1.19	0.817	0.704	0.723	0.825	0.827	0.718
NCI-H2085	0.454	0.503	0.515	0.608	0.977	0.984	0.986	1.02	1.08	0.989	1.05	1	0.913	1.22	1.04	0.995	0.964
